{"source": "paper PMC4128046", "about": "“Effect of a toggle switch mutation in TM6 of the human adenosine A3 receptor on Gi protein-dependent signalling and Gi-independent receptor internalization” (British Journal of Pharmacology, 2014)", "key": {"[1]": {"target": "T1, A3 W243F-YFP (Homo sapiens, UniProt P0DMS8, W243F)", "T1 construct": "Full length A3 W243F-YFP was excised and subcloned into a native pcDNA3.1 vector; expressed in transfected cells", "T1 sequence (P0DMS8 1-318 W243F)": "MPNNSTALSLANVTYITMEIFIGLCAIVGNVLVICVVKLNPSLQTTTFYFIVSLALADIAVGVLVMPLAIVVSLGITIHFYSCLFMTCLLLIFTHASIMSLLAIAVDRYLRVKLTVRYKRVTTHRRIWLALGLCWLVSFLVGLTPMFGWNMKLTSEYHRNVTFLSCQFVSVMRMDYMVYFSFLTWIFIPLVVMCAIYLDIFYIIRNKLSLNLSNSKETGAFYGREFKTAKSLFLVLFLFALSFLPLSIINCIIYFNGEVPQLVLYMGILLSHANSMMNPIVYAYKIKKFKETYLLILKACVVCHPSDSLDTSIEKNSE", "test": "[3H]-cAMP accumulation assay, A3 W243F-YFP", "assay_type": "cell-based", "details": "for inhibition of FSK-stimulated [3H]-cAMP accumulation after 5 h agonist stimulation / Emax: A3 W243F-YFP cells; for inhibition of FSK-stimulated [3H]-cAMP accumulation after 5 h agonist stimulation: 5 h stimulation, compared with 1 h; for Emax: read-out: Maximum response (% inhibition of 3 μM FSK), cAMP accumulation assay, 1 h stimulation", "experimental": "On the day of analysis, cells were labelled with [^3H]-adenine (2 μCi·mL^−1) in a total volume of 600 μL per well for 2 h at 37°C/5% CO2 in normal growth medium. After 2 h, the [^3H]-adenine-containing medium was removed; cells washed once in serum-free medium and fresh serum-free medium, containing 10 μM rolipram, added. […] […] The assay was terminated by the addition of 50 μL concentrated HCl to each well. The levels of [^3H]-cAMP incorporated were measured by sequential Dowex and alumina chromatography and the efficiency of each column was determined by the recovery of [^14C]-cAMP as described by Donaldson et al. ([1988]).\nA basal and FSK control was included in each separate concentration-response CRE-SPAP gene transcription assay and cAMP accumulation assay to allow the responses in each cell line to be expressed as an inhibition of FSK-stimulated SPAP production."}, "[2]": {"target": "T2, SNAP-A3 (Homo sapiens, UniProt P0DMS8)", "T2 construct": "the methionine start signal was removed from cDNA encoding the full length A3; expressed in transfected cells; host or cells: CHO CRE-SPAP, transient (Fugene HD)", "T2 sequence (P0DMS8 2-318 limits assumed)": "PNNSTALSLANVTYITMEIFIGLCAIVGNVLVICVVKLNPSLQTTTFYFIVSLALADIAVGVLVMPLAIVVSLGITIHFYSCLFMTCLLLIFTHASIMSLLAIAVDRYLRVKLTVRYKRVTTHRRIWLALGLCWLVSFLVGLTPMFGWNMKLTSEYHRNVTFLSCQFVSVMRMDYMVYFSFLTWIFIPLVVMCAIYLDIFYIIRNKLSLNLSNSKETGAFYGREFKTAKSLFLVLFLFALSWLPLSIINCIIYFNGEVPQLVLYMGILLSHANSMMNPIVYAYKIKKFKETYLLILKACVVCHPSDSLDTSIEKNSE", "test": "Confocal imaging of SNAP-tagged receptor internalization, SNAP-A3", "assay_type": "cell-based", "details": "SNAP-A3 transiently expressed in CHO CRE-SPAP cells, BG-AF488 label, 10 μM agonist", "experimental": "CHO-K1 cells stably expressing a cAMP response element-secreted placental alkaline phosphatase (CRE-SPAP) reporter gene (CHO CRE-SPAP) under hygromycin selectivity and CHO-K1 cells stably expressing β-arrestin2-vYnL (CHO β-arrestin2-vYnL, a gift from Dr. N. Holliday, University of Nottingham, Nottingham, UK) were maintained in DMEM/F12 medium containing 10% FCS and 2 mM L-glutamine at 37°C in a humidified atmosphere of air/CO2 (19:1). […] Cell lines were initially screened for YFP or bimolecular fluorescence complementation (BiFC) fluorescence and CRE-SPAP cells lines were subsequently tested in the CRE-SPAP gene transcription assay. […]\nLive-cell BiFC imaging was performed on A3-vYc/β-arrestin2-vYnL and A3 W243F-vYc/β-arrestin2-vYnL cells grown in Nunc Labtek 8-well plates, and images obtained using a Zeiss 710 confocal microscope (Carl Zeiss GmbH, Jena, Germany) fitted with a 63× plan-Apochromat NA1.4 Ph3 oil-immersion objective. […] For both YFP, BiFC and BG-AF488 label, a 488 nm argon laser was used to excite the fluorophore and emission was detected using a BP505-530 filter. […] Images of A3-YFP and A3 W243F-YFP cells were taken with same pinhole diameter, laser power, gain and offset to allow comparison of YFP fluorescence. To obtain fluorescence intensity values, a region of interest was drawn around the plasma membrane of 10 cells per image in Zeiss AIM 4.2 software (Carl Zeiss GmbH)."}}, "data": [{"smiles": "CCCCC#Cc1nc(NC)c2ncn([C@@H]3O[C@H](CO)[C@@H](O)[C@H]3O)c2n1", "note": "[HEMADO, 2-(1-hexynyl)-N-methyladenosine]", "values": [{"measurement": "inhibition of FSK-stimulated [3H]-cAMP accumulation after 5 h agonist stimulation", "setting": "[1]", "result": "very little inhibition"}, {"measurement": "Emax", "setting": "[1]", "result": "43.2 ± 4.3", "unit": "%"}, {"measurement": "EC50", "setting": "[1]; read-out: pEC50 (cAMP accumulation assay) (converted)", "result": 9.55, "unit": "nM"}, {"measurement": "internalization of SNAP-tagged receptor seen in confocal images", "setting": "[2]", "result": "clear punctate granules"}]}, {"smiles": "CCNC(=O)[C@H]1O[C@@H](n2cnc3c(N)ncnc32)[C@H](O)[C@@H]1O", "note": "[NECA, 5-(N-ethylcarboxamido)adenosine]", "values": [{"measurement": "inhibition of FSK-stimulated [3H]-cAMP accumulation after 5 h agonist stimulation", "setting": "[1]", "result": "reduced the maximal inhibition"}, {"measurement": "Emax", "setting": "[1]", "result": "49.7 ± 2", "unit": "%"}, {"measurement": "internalization of SNAP-tagged receptor seen in confocal images", "setting": "[2]", "result": "clear punctate granules"}]}]}
